Data from ChEMBL document CHEMBL4507268 (2021).

Columns and labels:
Conditions in all cases: Compound concentration 1.0 uM
[1] = biological target: T1, Ephrin type-B receptor 2 (Homo sapiens) (UniProt P29323)
T1 sequence (whole entry): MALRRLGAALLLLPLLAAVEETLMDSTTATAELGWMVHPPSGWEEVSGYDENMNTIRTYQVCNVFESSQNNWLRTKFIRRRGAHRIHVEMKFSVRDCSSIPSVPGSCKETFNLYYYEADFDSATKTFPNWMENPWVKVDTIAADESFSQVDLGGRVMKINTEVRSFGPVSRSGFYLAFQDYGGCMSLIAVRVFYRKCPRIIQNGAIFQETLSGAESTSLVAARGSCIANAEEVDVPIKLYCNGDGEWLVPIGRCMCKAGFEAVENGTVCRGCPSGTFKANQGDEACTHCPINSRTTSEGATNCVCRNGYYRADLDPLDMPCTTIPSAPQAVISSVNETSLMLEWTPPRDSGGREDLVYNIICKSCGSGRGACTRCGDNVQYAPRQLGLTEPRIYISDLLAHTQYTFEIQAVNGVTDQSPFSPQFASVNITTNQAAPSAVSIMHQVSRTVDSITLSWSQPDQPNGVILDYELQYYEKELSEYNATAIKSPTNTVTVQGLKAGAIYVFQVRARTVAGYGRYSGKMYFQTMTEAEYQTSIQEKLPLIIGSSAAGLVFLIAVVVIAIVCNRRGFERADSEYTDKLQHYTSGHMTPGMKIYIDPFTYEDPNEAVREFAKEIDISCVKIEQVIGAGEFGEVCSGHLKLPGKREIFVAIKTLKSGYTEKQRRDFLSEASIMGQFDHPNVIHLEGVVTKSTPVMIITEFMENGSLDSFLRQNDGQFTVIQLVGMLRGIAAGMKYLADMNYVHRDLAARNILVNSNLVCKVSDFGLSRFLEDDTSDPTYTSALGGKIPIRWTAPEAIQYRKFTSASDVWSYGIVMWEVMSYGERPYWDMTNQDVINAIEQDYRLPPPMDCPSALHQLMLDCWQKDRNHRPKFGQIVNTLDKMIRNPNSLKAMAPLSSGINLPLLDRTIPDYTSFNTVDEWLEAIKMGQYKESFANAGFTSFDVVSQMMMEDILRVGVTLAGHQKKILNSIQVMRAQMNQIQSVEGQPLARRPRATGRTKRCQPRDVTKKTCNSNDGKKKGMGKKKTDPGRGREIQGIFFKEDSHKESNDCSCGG

[2] = biological target: Serine-protein kinase ATM (Homo sapiens) (UniProt Q13315)
Chain of Serine-protein kinase ATM (Homo sapiens) (Q13315 whole entry): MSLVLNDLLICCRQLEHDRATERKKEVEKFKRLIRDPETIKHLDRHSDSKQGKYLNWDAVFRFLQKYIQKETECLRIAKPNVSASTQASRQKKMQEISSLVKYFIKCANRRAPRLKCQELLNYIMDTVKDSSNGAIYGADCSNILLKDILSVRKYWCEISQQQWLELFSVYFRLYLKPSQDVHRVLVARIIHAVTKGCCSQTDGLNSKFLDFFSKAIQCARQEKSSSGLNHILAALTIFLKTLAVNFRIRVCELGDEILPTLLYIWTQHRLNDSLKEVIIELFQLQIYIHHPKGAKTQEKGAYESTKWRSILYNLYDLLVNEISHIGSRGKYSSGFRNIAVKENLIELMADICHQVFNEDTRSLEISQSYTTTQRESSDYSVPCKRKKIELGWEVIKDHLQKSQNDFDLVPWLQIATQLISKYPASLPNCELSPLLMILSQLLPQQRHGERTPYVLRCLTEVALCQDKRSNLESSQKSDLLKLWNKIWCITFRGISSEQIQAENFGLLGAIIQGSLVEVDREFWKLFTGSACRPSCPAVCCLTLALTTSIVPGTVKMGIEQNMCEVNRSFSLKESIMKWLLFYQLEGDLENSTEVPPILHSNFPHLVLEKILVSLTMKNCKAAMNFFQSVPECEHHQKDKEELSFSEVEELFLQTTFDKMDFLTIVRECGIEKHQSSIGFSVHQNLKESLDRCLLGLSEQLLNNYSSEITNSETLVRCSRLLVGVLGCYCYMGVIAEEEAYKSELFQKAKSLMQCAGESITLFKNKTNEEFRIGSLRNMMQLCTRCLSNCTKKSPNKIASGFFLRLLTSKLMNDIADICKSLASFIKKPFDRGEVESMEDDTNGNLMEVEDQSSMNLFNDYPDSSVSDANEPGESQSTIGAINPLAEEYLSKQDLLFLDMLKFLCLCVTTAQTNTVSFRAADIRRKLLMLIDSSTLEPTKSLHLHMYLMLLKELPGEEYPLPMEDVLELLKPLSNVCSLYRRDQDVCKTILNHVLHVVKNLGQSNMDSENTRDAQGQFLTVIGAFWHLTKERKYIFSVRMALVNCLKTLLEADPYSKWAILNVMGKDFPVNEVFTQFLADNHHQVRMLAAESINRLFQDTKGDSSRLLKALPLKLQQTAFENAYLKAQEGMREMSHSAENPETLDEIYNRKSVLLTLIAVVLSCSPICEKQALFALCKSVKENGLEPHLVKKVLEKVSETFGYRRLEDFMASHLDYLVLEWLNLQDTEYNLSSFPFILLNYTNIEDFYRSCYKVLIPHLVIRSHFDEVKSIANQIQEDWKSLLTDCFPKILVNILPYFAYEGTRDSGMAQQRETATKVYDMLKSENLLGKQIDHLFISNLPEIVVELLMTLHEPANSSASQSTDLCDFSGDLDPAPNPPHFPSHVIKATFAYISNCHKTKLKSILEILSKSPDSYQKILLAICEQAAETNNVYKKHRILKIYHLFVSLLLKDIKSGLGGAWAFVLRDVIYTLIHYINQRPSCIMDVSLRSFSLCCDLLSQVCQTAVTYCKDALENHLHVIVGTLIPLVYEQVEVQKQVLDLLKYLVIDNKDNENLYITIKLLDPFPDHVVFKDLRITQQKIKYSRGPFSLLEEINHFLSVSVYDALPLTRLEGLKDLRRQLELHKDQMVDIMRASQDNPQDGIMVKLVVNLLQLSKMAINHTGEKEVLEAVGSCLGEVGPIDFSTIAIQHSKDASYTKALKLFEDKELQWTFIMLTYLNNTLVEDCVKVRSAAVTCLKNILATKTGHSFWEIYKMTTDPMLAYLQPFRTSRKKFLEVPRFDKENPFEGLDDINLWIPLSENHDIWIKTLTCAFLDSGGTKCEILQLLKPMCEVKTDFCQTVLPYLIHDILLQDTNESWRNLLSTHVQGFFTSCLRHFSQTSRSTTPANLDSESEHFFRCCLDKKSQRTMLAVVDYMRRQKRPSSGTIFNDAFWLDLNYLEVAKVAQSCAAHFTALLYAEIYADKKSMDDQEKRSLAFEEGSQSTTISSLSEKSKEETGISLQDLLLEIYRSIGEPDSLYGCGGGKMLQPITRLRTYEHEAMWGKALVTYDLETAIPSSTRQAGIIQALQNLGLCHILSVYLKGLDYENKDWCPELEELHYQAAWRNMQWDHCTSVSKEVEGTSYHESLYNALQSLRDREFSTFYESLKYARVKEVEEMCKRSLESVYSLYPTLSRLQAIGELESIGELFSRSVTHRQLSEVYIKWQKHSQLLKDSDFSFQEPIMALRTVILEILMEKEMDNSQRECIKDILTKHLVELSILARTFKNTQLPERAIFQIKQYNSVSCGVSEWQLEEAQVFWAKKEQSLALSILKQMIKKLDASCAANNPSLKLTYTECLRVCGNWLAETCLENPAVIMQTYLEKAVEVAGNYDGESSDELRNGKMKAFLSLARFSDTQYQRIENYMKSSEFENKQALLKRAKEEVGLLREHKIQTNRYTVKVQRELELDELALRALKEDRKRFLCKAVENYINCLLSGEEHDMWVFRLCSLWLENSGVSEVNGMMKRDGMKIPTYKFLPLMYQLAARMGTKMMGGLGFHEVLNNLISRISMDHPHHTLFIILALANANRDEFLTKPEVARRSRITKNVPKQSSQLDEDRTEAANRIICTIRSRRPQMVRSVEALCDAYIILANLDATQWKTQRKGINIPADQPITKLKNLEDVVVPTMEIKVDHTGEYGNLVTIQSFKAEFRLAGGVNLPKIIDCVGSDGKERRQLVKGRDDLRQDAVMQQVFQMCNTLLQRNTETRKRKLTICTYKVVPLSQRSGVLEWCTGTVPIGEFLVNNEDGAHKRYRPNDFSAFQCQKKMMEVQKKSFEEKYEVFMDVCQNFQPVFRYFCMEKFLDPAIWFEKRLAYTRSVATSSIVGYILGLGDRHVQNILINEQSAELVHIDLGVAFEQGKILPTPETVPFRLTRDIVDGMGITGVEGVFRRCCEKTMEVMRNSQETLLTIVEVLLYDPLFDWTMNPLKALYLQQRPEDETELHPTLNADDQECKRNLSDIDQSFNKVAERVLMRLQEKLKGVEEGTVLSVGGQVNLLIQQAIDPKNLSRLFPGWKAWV

[3] = biological target: Transcription initiation factor TFIID subunit 1-like (Homo sapiens) (UniProt Q8IZX4)
[4] = biological target: T2, Serine/threonine-protein kinase MAK (Homo sapiens) (UniProt P20794)
T2 sequence (whole entry): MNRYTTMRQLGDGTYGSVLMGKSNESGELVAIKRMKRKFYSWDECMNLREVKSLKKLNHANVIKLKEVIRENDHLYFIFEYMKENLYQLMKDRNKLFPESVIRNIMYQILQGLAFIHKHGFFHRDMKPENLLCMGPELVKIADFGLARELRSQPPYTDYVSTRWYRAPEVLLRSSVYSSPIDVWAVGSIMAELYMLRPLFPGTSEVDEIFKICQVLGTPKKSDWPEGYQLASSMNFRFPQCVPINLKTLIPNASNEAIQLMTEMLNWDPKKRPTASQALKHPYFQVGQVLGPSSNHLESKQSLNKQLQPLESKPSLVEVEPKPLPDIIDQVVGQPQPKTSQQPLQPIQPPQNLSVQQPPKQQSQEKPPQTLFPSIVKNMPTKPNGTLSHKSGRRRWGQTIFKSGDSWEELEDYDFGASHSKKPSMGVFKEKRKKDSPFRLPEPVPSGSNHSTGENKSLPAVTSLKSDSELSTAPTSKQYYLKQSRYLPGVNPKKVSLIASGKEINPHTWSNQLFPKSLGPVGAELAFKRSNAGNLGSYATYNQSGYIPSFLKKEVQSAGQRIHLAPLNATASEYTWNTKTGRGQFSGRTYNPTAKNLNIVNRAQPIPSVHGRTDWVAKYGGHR

[5] = biological target: Serine/threonine-protein kinase pim-3 (Homo sapiens) (UniProt Q86V86)
[6] = biological target: Proto-oncogene tyrosine-protein kinase ROS (Homo sapiens) (UniProt P08922)
[7] = biological target: PI3-kinase p110-alpha/p85-alpha (Homo sapiens) (UniProt P27986+P42336)
[8] = biological target: Cyclin-dependent kinase 2/cyclin E (Homo sapiens) (UniProt P24864+P24941+O96020)
[9] = biological target: Tau-tubulin kinase 1 (Homo sapiens) (UniProt Q5TCY1)
Chain of Tau-tubulin kinase 1 (Homo sapiens) (Q5TCY1 whole entry): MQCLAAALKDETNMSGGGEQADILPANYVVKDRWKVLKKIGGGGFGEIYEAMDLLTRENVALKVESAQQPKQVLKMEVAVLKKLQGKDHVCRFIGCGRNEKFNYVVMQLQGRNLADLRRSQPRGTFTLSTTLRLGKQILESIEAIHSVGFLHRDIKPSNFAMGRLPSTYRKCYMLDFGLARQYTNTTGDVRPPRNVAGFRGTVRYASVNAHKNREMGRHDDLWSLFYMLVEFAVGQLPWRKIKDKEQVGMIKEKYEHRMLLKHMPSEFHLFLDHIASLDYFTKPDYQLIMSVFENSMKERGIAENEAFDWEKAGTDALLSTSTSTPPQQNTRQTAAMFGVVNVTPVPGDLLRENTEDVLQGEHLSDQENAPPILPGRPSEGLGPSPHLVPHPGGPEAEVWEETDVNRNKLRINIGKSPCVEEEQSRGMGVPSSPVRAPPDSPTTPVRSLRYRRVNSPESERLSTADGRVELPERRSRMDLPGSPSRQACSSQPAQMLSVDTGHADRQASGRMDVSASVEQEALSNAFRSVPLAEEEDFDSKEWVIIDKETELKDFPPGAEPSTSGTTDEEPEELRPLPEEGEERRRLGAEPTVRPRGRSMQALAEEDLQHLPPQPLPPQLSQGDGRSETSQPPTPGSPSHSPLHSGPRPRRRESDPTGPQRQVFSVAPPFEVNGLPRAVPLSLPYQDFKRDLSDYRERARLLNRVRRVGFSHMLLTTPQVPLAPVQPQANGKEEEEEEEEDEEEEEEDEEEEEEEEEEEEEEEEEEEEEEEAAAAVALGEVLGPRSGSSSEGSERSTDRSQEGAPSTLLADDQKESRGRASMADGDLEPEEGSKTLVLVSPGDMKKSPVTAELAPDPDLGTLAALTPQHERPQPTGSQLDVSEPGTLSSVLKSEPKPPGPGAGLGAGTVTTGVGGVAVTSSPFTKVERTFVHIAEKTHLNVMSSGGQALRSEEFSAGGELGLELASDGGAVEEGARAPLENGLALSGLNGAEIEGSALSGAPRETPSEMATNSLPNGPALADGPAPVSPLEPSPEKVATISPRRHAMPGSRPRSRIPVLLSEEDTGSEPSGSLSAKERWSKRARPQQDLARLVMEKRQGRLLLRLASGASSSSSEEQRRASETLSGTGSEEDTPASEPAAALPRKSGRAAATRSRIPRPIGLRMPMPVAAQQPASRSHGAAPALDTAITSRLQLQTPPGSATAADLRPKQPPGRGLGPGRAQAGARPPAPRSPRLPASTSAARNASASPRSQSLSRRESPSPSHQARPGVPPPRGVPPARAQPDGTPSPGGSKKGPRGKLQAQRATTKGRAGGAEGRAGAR

[10] = biological target: Dual specificity tyrosine-phosphorylation-regulated kinase 1B (Homo sapiens) (UniProt Q9Y463)
Chain of Dual specificity tyrosine-phosphorylation-regulated kinase 1B (Homo sapiens) (Q9Y463 whole entry, looked up): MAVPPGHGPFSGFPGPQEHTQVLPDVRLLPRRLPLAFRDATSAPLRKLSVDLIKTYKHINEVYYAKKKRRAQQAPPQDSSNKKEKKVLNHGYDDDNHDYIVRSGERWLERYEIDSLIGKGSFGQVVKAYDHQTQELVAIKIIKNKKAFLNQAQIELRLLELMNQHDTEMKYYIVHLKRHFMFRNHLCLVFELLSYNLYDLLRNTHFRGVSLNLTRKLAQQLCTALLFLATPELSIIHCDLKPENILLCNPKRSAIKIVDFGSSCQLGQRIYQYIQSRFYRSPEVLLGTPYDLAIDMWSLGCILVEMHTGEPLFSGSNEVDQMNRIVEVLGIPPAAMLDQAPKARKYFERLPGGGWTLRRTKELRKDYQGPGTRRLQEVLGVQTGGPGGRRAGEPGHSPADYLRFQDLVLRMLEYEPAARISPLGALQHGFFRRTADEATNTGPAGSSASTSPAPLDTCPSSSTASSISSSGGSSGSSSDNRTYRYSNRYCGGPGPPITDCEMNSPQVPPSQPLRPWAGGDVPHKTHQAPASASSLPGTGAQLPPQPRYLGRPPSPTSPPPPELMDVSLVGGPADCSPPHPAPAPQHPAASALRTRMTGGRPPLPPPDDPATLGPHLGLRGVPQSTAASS

[11] = biological target: Cyclin-dependent kinase 5/CDK5 activator 1 (Homo sapiens) (UniProt Q00535+Q15078)
[12] = biological target: T3, G protein-coupled receptor kinase 3 (Homo sapiens) (UniProt P35626)
T3 sequence (whole entry): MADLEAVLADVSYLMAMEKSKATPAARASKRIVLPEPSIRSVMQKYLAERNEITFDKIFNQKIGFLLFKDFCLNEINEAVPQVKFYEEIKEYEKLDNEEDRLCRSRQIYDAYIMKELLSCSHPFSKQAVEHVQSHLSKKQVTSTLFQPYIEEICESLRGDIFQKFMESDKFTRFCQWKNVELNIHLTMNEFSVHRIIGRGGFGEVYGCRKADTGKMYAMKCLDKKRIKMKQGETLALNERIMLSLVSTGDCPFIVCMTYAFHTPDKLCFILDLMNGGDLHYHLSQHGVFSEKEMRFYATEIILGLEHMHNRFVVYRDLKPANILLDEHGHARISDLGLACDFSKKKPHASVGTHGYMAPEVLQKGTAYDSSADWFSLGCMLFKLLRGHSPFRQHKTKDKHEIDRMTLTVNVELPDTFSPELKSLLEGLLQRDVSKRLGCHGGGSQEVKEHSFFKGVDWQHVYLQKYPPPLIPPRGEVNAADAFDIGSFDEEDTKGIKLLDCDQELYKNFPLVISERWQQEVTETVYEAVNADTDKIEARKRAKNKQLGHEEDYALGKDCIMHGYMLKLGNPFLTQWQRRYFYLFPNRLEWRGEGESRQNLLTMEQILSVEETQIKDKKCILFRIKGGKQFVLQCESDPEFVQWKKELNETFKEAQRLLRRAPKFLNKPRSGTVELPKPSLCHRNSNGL

Measured: % residual kinase activity

CN1CCN(c2cnc3c(C4CCN(C(=O)c5ccc(OC(F)(F)F)cc5N)CC4)ncnc3c2)CC1 [BAY-885]
inactive: [1] 93% | [2] 107% | [3] 120% | [4] 125% | [5] 102% | [6] 111% | [7] 98% | [8] 99% | [9] 95% | [10] 106% | [11] 106% | [12] 92%
